Assay results reported in ChEMBL document CHEMBL5104193, “Hypoxia-Activated Prodrugs with Dual COX-2/CA Inhibitory Effects on Attenuating Cardiac Inflammation under Hypoxia” (J Med Chem, 2022).
Activity calls are given as the source filed them. The rule behind the calls is not given here.

Assays:
[1] = tested on: H9c2; assay: (§1) Protection against LPS/hypoxia induced apoptosis in rat H9c2 cells assessed as reduction in necrotic cells at 10 umol/L incubated for 4 hrs under hypoxia condition by AnnexinV-FITC/propidium iodide staining based flow cytometry analysis (reference value: 31.02%); format: functional; parameters: scale not given: the % may be the effect or the level left; conditions: dose 10 µmol/L, at 10 µM
[2] = tested on: H9c2; assay: as §1, with “condition in presence of 2-(4-(5-oxo-5-((5-sulfamoyl-1,3,4-thiadiazol-2-yl)amino)pentyl)-1H-1,2,3-triazol-1-yl)acetic acid” for “condition”; format: functional; parameters: scale not given: the % may be the effect or the level left; conditions: dose 10 µmol/L, at 10 µM
[3] = tested on: H9c2; assay: Protection against LPS/hypoxia induced apoptosis in rat H9c2 cells assessed as reduction in red fluorescence by confocal microscopy analysis; format: functional, cell-based
[4] = tested on: H9c2; assay: Protection against LPS/hypoxia induced apoptosis in rat H9c2 cells assessed as reduction in red fluorescence in presence of 2-(4-(5-oxo-5-((5-sulfamoyl-1,3,4-thiadiazol-2-yl)amino)pentyl)-1H-1,2,3-triazol-1-yl)acetic acid by confocal microscopy analysis; format: functional, cell-based
[5] = tested on: H9c2; assay: Protection against LPS/hypoxia induced apoptosis in rat H9c2 cells assessed as reduction in green fluorescence in presence of 2-(4-(5-oxo-5-((5-sulfamoyl-1,3,4-thiadiazol-2-yl)amino)pentyl)-1H-1,2,3-triazol-1-yl)acetic acid by confocal microscopy analysis; format: functional, cell-based
[6] = Stability of the compound assessed as NTR (unknown origin) mediated hydrolysis by measuring half life by UV spectrophotometry; format: ADME; conditions: human
[7] = tested on: H9c2; assay: Anti-inflammatory activity in LPS/hypoxia induced rat H9c2 cells assessed as reduction of IL-6 protein expression at 10 uM by Western blot analysis; format: functional, cell-based
[8] = tested on: H9c2; assay: Anti-inflammatory activity in LPS/hypoxia induced rat H9c2 cells assessed as reduction of TNF-alpha protein expression at 10 uM by Western blot analysis; format: functional, cell-based
[9] = tested on: H9c2; assay: Anti-inflammatory activity in LPS/hypoxia induced rat H9c2 cells assessed as reduction of IL-6 protein expression at 10 uM in presence of 2-(4-(5-oxo-5-((5-sulfamoyl-1,3,4-thiadiazol-2-yl)amino)pentyl)-1H-1,2,3-triazol-1-yl)acetic acid by Western blot analysis; format: functional, cell-based
[10] = tested on: H9c2; assay: Anti-inflammatory activity in LPS/hypoxia induced rat H9c2 cells assessed as reduction of TNF-alpha protein expression at 10 uM in presence of 2-(4-(5-oxo-5-((5-sulfamoyl-1,3,4-thiadiazol-2-yl)amino)pentyl)-1H-1,2,3-triazol-1-yl)acetic acid by Western blot analysis; format: functional, cell-based
[11] = tested on: H9c2; assay: Anti-inflammatory activity in LPS/hypoxia induced rat H9c2 cells assessed as reduction of IL-1beta protein expression at 10 uM in presence of 2-(4-(5-oxo-5-((5-sulfamoyl-1,3,4-thiadiazol-2-yl)amino)pentyl)-1H-1,2,3-triazol-1-yl)acetic acid by Western blot analysis; format: functional, cell-based
[12] = tested on: H9c2; assay: Anti-inflammatory activity in rat H9c2 cells assessed as downregulation of cytochrome C expression at 10 uM by Western blot analysis; format: functional, cell-based
[13] = tested on: H9c2; assay: Anti-inflammatory activity in rat H9c2 cells assessed as downregulation of cytochrome C expression at 10 uM in presence of 2-(4-(5-oxo-5-((5-sulfamoyl-1,3,4-thiadiazol-2-yl)amino)pentyl)-1H-1,2,3-triazol-1-yl)acetic acid by Western blot analysis; format: functional, cell-based
[14] = tested on: H9c2; assay: Anti-inflammatory activity in rat H9c2 cells assessed as inhibition of endogenous IL-6 protein expression in presence of 2-(4-(5-oxo-5-((5-sulfamoyl-1,3,4-thiadiazol-2-yl)amino)pentyl)-1H-1,2,3-triazol-1-yl)acetic acid by DAPI staining based immunofluorescence analysis; format: functional, cell-based
[15] = tested on: H9c2; assay: Protection against LPS/hypoxia induced cell injury in CA9 knockdown rat H9c2 cells assessed as recovery of cell viability at 10 uM by CCK-8 assay; format: functional, cell-based
[16] = tested on: H9c2; assay: Antiinflammatory activity in LPS/hypoxia induced CA9 knockdown rat H9c2 cells assessed as decrease in IL-1 beta protein level at 10 uM by Western blot analysis; format: functional, cell-based
[17] = tested on: H9c2; assay: Antiinflammatory activity in LPS/hypoxia induced CA9 knockdown rat H9c2 cells assessed as decrease in IL-6 protein level at 10 uM by Western blot analysis; format: functional, cell-based
[18] = tested on: H9c2; assay: Antiinflammatory activity in LPS/hypoxia induced CA9 knockdown rat H9c2 cells assessed as decrease in TNF-alpha protein level at 10 uM by Western blot analysis; format: functional, cell-based
[19] = tested on: H9c2; assay: Protection against LPS/hypoxia induced cell injury in rat H9c2 cells assessed as recovery of cell viability in presence of 2-(4-(5-oxo-5-((5-sulfamoyl-1,3,4-thiadiazol-2-yl)amino)pentyl)-1H-1,2,3-triazol-1-yl)acetic acid by CCK-8 assay (reference value: 69.0%); format: functional
[20] = tested on: H9c2; assay: Protection against LPS/hypoxia induced cell injury in rat H9c2 cells assessed as recovery of cell viability in presence of 2-(4-(5-oxo-5-((5-sulfamoyl-1,3,4-thiadiazol-2-yl)amino)pentyl)-1H-1,2,3-triazol-1-yl)acetic acid and Na2WO4 by CCK-8 assay; format: functional, cell-based
[21] = tested on: H9c2; assay: Reversal of LPS/hypoxia induced mitochondrial membrane potential loss in rat H9c2 cells assessed as increase in JC-1 polymer morphology in presence of 2-(4-(5-oxo-5-((5-sulfamoyl-1,3,4-thiadiazol-2-yl)amino)pentyl)-1H-1,2,3-triazol-1-yl)acetic acid by JC-1 dye based flow cytometry analysis; format: functional, cell-based; conditions: time 20.0 min
[22] = tested on: H9c2; assay: Reversal of ATP level in LPS/hypoxia induced rat H9c2 cell in presence of 2-(4-(5-oxo-5-((5-sulfamoyl-1,3,4-thiadiazol-2-yl)amino)pentyl)-1H-1,2,3-triazol-1-yl)acetic acid and Na2WO4 by multimode plate reader analysis; format: functional, cell-based
[23] = tested on: Rattus norvegicus; assay: (§2) Antiinflammatory activity against LPS/talc powder induced pericarditic Wistar rat assessed as reduction in torsion T wave inversion at 20 mg/kg, ip pretreated for 2 hrs followed by LPS/tal powder stimulation measured after 48 hrs in presence of 2-(4-(5-oxo-5-((5-sulfamoyl-1,3,4-thiadiazol-2-yl)amino)pentyl)-1H-1,2,3-triazol-1-yl)acetic acid by ECG analysis; format: functional, organism-based; conditions: time 50.0 hrs
[24] = tested on: Rattus norvegicus; assay: as §2, with “elimination of pericardial effusion” for “reduction in torsion T wave inversion”, “acid” for “acid by ECG analysis”; format: functional, organism-based; conditions: time 50.0 hrs
[25] = tested on: Rattus norvegicus; assay: as §2, with “in” for “against”, “rat model” for “rat”, “increase” for “reduction”, “CK-MB level in serum” for “torsion T wave inversion”, “(reference value: 4140+/-256.23 U/L)” for “by ECG analysis”; format: functional; conditions: time 50 hrs
[26] = tested on: Rattus norvegicus; assay: as §2, with “in” for “against”, “increase” for “reduction”, “cTNI level in serum” for “torsion T wave inversion”, “(reference value: 0.167+/-0.025 ng/ml)” for “by ECG analysis”; format: functional; conditions: time 50 hrs
[27] = Toxicity in Wistar rat assessed as change in ALT level in presence of 2-(4-(5-oxo-5-((5-sulfamoyl-1,3,4-thiadiazol-2-yl)amino)pentyl)-1H-1,2,3-triazol-1-yl)acetic acid; conditions: in vivo
[28] = Toxicity in Wistar rat assessed as change in CRE level in presence of 2-(4-(5-oxo-5-((5-sulfamoyl-1,3,4-thiadiazol-2-yl)amino)pentyl)-1H-1,2,3-triazol-1-yl)acetic acid; conditions: in vivo

Q: Which results are given for `COc1ccc2c(c1)c(CC(=O)O)c(C)n2C(=O)c1ccc(Cl)cc1` [INDOMETHACIN]?
A: Activity [1]: 23.96%; Activity [2]: 9.61%; Activity [3]: Active; Activity [4]: Active; Activity [5]: Active; t1/2 [6]: 21.6 min; Activity [7]: Active; Activity [8]: Active; Activity [9]: Active; Activity [10]: Active; Activity [11]: Active; Activity [12]: Active; Activity [13]: Active; Activity [14]: Active; Activity [15]: Active; Activity [16]: Active; Activity [17]: Active; Activity [18]: Active; Activity [19]: 91.8%; Activity [20]: Active; Activity [21]: Active; Activity [22]: Active; Activity [23]: Active; Activity [24]: Active; Activity [25]: 2620 U/L; Activity [26]: 0.121 ng/mL; Activity [27]: Toxic; Activity [28]: Toxic
